The results in this text go back to US20250099461A1 (JAPANESE FOUNDATION FOR CANCER RESEARCH, priority 2021, published 2025).

In one data set the target is T1, TPM3-NTRK1 fusion gene (Homo sapiens, UniProt P04629).
T1 construct: expressed in transfected cells; host or cells: Ba/F3; the other entry of the earlier key: TPM3 (P06753, Tropomyosin alpha-3 chain)
Briefly: Viability of Ba/F3 expressing TPM3-NTRK1. Format: cell-based. To be noted: Ba/F3 having TPM3-NTRK1 fusion gene; read-out: IC50 (viability rate). The source says: (§1) Both of the cells were highly sensitive to gilteritinib.

The test system of a further data set is KM12 cells. Briefly: Apoptosis in KM12 cells. Format: cell-based.
For another data set, the target named is T2, I1171N+F1174L (Homo sapiens, UniProt Q9UM73, I1171N/F1174L, cells depend on it).
T2 construct: fused on or other part: Q9HC35 (Echinoderm microtubule-associated protein-like 4)
Briefly: Ba/F3 ALK compound mutant viability IC50. Format: cell-based. To be noted: read-out: IC50 (cell proliferation).

For data set [1], the system named is TPM3-NTRK1 fusion gene-positive colon cancer cell line KM12. Briefly: Viability of KM12 cells. Format: cell-based. As to conditions: Homo sapiens, read-out: IC50 (viability rate).
Description: as §1

In data set [2] the test system is H3122 cells having AXL overexpressed. Briefly: Viability IC50 in H3122 cells having AXL overexpressed. Format: cell-based. The source says:
In EGFR-positive lung cancer, it has been reported that a decrease of response to EGFR-TKI correlates with activation of AXL (Non Patent Literature 5).

A further data set has as its target T3, TPM3-NTRK1-G667C (Homo sapiens, UniProt P04629, G667C).
T3 construct: expressed in transfected cells; host or cells: Ba/F3; the other entry of the earlier key: TPM3 (P06753, Tropomyosin alpha-3 chain)
Briefly: Viability of Ba/F3 expressing TPM3-NTRK1-G667C. Format: cell-based. To be noted: read-out: IC50 (viability rate).

The target in a further data set is T4, EML4-ALK F11741 (Homo sapiens, UniProt Q9UM73, F1174I, cells depend on it).
T4 construct: fused on or other part: Q9HC35 (Echinoderm microtubule-associated protein-like 4)
Briefly: Ba/F3 ALK mutant viability IC50, CellTiter-Glo. Format: cell-based. To be noted: read-out: IC50 (cell viability). On the procedure: It has been reported that alectinib-resistant patients have gene mutations associated with an amino acid substitution, such as I1171T/N/S, V1180L, G1202R and L1196M, in the ALK kinase domain. […] After the cells were cultured for 72 hours, the cell viability rate was calculated in accordance with the CellTiter-Glo assay to obtain IC50 values (FIG. 5A).
The cell proliferation inhibitory effects on not only these alectinib-resistant mutations but also mutations reported as crizotinib- and ceritinib-resistant mutations were analyzed.

A short description of data set [3]: Ba/F3 cell viability, CellTiter-Glo. As to conditions: mouse, parental Ba/F3 cells (+IL-3). (ATP-based viability assays read luminescence as a measure of living cells.)
The target in another data set is T5, I1171N+G1269A (Homo sapiens, UniProt Q9UM73, I1171N/G1269A, cells depend on it).
T5 construct: fused on or other part: Q9HC35 (Echinoderm microtubule-associated protein-like 4)
Briefly: Ba/F3 ALK compound mutant viability IC50. As to conditions: read-out: IC50 (cell proliferation). Format: cell-based.

Another data set deals with EML4-ALK I1171N + L1198H (Homo sapiens, UniProt Q9UM73, I1171N/L1198H). Briefly: Ba/F3 cell viability, CellTiter-Glo. To be noted: 50 nM, 72 hours, DMSO as 100, BaF3 EML4-ALK I1171N + L1198H. The protocol:
(§2) Then, to search a drug overcoming these mutations, EML4-ALK I1171N+F1174I or EML4-ALK I1171N+L1198H was introduced into Ba/F3 cells (obtained from Riken BRC) and expressed therein. Using the expression cells and an inhibitor library mostly constituted of available kinase inhibitors, the cell-proliferation inhibitory effect was examined. Note that, the mutant gene-introduced cells to be used later were prepared by integrating a gene having a mutation into a lentiviral vector and introducing the vector into cells. The EML4-ALK fusion genes and mutants thereof to be used later were prepared based on the fusion genes disclosed in Non Patent Literature 1 unless otherwise specified.
(§3) The viable cells were counted 72 hours later in accordance with the CellTiter-Glo assay (Promega). The viability rates of cells are shown based on the number of viable cells when DMSO was added, as 100.

Another data set concerns the target EML4-ALK WT (Homo sapiens, UniProt Q9UM73). Briefly: Ba/F3 cell viability, CellTiter-Glo. To be noted: 50 nM, 72 hours, DMSO as 100, BaF3 EML4-ALK WT; in %. On the procedure: as §2, §3
A further data set concerns the target EML4-ALK I1171N + F1174I (Homo sapiens, UniProt Q9UM73, F1174I/I1171N). Briefly: Ba/F3 cell viability, CellTiter-Glo. As to conditions: 50 nM, 72 hours, DMSO as 100, BaF3 EML4-ALK I1171N + F1174I; in %. The protocol:
as §2, §3

Another data set has as its target T6, I1171N+L1196M (Homo sapiens, UniProt Q9UM73, I1171N/L1196M, cells depend on it).
T6 construct: fused on or other part: Q9HC35 (Echinoderm microtubule-associated protein-like 4)
Briefly: Ba/F3 ALK compound mutant viability IC50. To be noted: read-out: IC50 (cell proliferation). Format: cell-based.

The next data set has as its target T7, D1203N+L1196M (Homo sapiens, UniProt Q9UM73, L1196M/D1203N, cells depend on it).
T7 construct: fused on or other part: Q9HC35 (Echinoderm microtubule-associated protein-like 4)
Briefly: Ba/F3 ALK compound mutant viability IC50. Format: cell-based. To be noted: read-out: IC50 for cell viability rate. The source says: (§4) EML4-ALK wild type, the three compound mutations having acquired resistance to existing ALK-TKIs, and G1202R and D1203N single mutations were expressed in Ba/F3 cells.

The next data set deals with T8, D1202R+L1196M (Homo sapiens, UniProt Q9UM73, L1196M/G1202R, cells depend on it).
T8 construct: fused on or other part: Q9HC35 (Echinoderm microtubule-associated protein-like 4)
Briefly: Ba/F3 ALK compound mutant viability IC50. Format: cell-based. To be noted: read-out: IC50 for cell viability rate.
Description: as §4

The next data set addresses T9, D1203N+F1245V (Homo sapiens, UniProt Q9UM73, D1203N/F1245V, cells depend on it).
T9 construct: fused on or other part: Q9HC35 (Echinoderm microtubule-associated protein-like 4)
Briefly: Ba/F3 ALK compound mutant viability IC50. Format: cell-based. As to conditions: read-out: IC50 for cell viability rate.
Description: as §4

The target in another data set is T10, I1171N+L1256F (Homo sapiens, UniProt Q9UM73, I1171N/L1256F, cells depend on it).
T10 construct: fused on or other part: Q9HC35 (Echinoderm microtubule-associated protein-like 4)
Briefly: Ba/F3 ALK compound mutant viability IC50. Format: cell-based. To be noted: read-out: IC50 (cell proliferation).

A further data set has as its target T11, I1171N+L1198F (Homo sapiens, UniProt Q9UM73, I1171N/L1198F, cells depend on it).
T11 construct: fused on or other part: Q9HC35 (Echinoderm microtubule-associated protein-like 4)
Briefly: Ba/F3 ALK compound mutant viability IC50. Format: cell-based. To be noted: read-out: IC50 (cell proliferation).

A further data set relates to H3122 cells. Briefly: H3122 xenograft. As to conditions: 30 mg/kg. Format: in vivo, BALB/c nu/nu mice. On the procedure:
H3122 or JFCR-028-3 cells were transplanted under the skin of BALB/c nu/nu mice. […] The effect was analyzed (each group: n=6). The volume of a tumor was measured three times per week.
(§5) H3122 cells having AXL overexpressed therein were transplanted under the skin of BALB/c nu/nu mice. After the average tumor volume reached 150 mm^3, the mice were divided into groups.

Another data set relates to MCC-003 cells. Briefly: MCC-003 xenograft. Format: in vivo, BALB/c nu/nu mice. To be noted: 30 mg/kg oral once a day, 5 days per week. On the procedure: MCC-003 cells were transplanted into BALB/c nu/nu mice. […] MCC-003 cells were transplanted under the skin of the mice. […] Eight mice were used in each group in the experiment. The volume of a tumor was measured three times per week (FIG. 8A). […] Note that, a decrease in body weight was not observed up to Day 15 in all groups.
JFCR-028-3 cells, H2228 cells and MCC-003 cells were separately transplanted under the skin of BALB/C nu/nu mice. […] The kinase domain of the ALK gene in JFCR-028-3 cells and H2228 cells are wild type; whereas that of alectinib-resistant MCC-003 cells has an I1171N mutation.

Data set [4] relates to H3122 cells having AXL overexpressed. Briefly: Xenograft of H3122 cells having AXL overexpressed. Format: in vivo, BALB/c nu/nu mice. As to conditions: 30 mg/kg oral once a day 5 days per week.
Description: as §5

Consider `CCc1nc(C(N)=O)c(Nc2ccc(N3CCC(N4CCN(C)CC4)CC3)c(OC)c2)nc1NC1CCOCC1` [Gilteritinib], for which the IC50 (usually the concentration that inhibits the measured activity by half) on TPM3-NTRK1 fusion gene was 13.3 nM; in [1], ≤ 30 nM; in data set [2] (Homo sapiens, NCI-H3122, read-out: IC50 for viability rate), ≤ 5 nM; on TPM3-NTRK1-G667C, 12.7 nM. In addition, in the data set on KM12 cells, the “cells with induced apoptosis” value is listed as “about 50%”. Also, the GI50 worked out at 3.15 nM on I1171N+F1174L; 4.72 nM at EML4-ALK F11741; 11.4 nM at I1171N+G1269A; 14 nM on I1171N+L1196M; 109 nM at D1203N+L1196M; 117 nM on D1202R+L1196M. Also, the GI50 at D1203N+F1245V stood at 64 nM; at I1171N+L1256F, 0.41 nM; on I1171N+L1198F, 1.64 nM. For the same molecule, the viability (as a rule, the share of living cells, or the viability signal relative to a control) at 72 h, 0.05 µM in data set [3] was found to be 95.2%. In addition, the viability rate of cells on EML4-ALK I1171N + L1198H was found to be 2.3%; at EML4-ALK WT, 0.1; at EML4-ALK I1171N + F1174I, 11.4.
Consider `CCc1cc2c(cc1N1CCC(N3CCOCC3)CC1)C(C)(C)c1[nH]c3cc(C#N)ccc3c1C2=O` [Alectinib], for which the “tumor growth (tumor volume)” value with H3122 cells is “completely suppressed”. Also, the “IC50 for viability rate” value in data set [2] is reported as “significantly high”. In addition, in [3], the viability at 72 h, 0.05 µM turned out to be 83.3%. For the same molecule, in the data set with MCC-003 cells, the tumor volume entry was “significant shrinkage of a tumor was not observed”. For the same molecule, in [4], the tumor growth entry is recorded as “tumor growth was observed in about three weeks”.
